Key:
MOLT-4 cells = assay: Apoptosis analysis with Annexin V-PI in MOLT-4 cells; type: cell-based, human; details: 1 μM Gal-9; FIG. 1B; control 13.2%
Experimental: MEBCYTO (registered trademark) Apoptosis kit (MBL, Nagoya, Japan) was used for apoptosis analysis with Annexin V-PI. Experiments were carried out according to the manufacturer's instruction as follows. Briefly, cells that underwent apoptosis induction (2×10^5 cells/sample) were washed with PBS, and resuspended in the binding buffer. After adding Annexin V-FITC and 5 μL of PI (final concentration 5 μg/mL) in the kit to the cell suspension, cells were incubated for 15 min at room temperature in the dark. Analysis was conducted using flow cytometry (EPICS XL-MCL, CouHer, Miami, Fla., US).

Jurkat = assay: Apoptosis analysis by PI method in Jurkat cells; type: cell-based
Experimental: MOLT-4 (T cell), Jurkat (T cell), BALL-1 (B cell), THP-1 (acute monocytic leukemia derived cell), and HL60 (acute promyelotic leukemia derived cell) cells were obtained from American Type Culture Collection (ATCC). All the cell lines were maintained in an RPMI-1640 medium (Sigma, St. Louis, US) supplemented with 10% FCS in 5% Co2 at 37° C. Lactose (30 mM) was added to the culture medium to inhibit Gal-9 activity. The same concentration of sucrose was used as a control.
Cells that underwent apoptosis induction were centrifuged at 4° C. for 5 min at 1,000 rpm, and the cell pellet was resuspended in PBS (300 μL), and adjusted to a final concentration of 70% by gradually adding 100% cold ethanol (700 μL) to the suspended cells with vortexing. […] Stained cells were analyzed by flow cytometry (Sandstrom, K. et al., J Immunol Methods, 240: 55 (2000) and Zhang L. et al., Cancer Lett, 142: 129 (1999)) after removing aggregated cells through a nylon mesh and increasing the cell volume with PBS. […]
Apoptotic activity was measured by the PI method. […] Subsequently, incubation with PI leads to a reduction in the fluorescence intensity of apoptotic cells. Apoptosis was examined by the percentage of the cells wherein their fluorescence intensity was reduced. […]

Galectin-9: Recombinant human galectin-9 expressed in E. coli and purified on lactose-agarose
cells that underwent apoptosis, detectable by Annexin V staining (MOLT-4 cells): 69.1%
apoptosis induction, Gal9 (+) (Jurkat; Jurkat, incubation with galectin-9 at least 48 hr or more): 66.6
apoptosis induction (Jurkat; rGal-9 1 μM, 24 hr, FIG. 3): induced
